Assay results published in patent publication US20170240535A1, “HDAC1/2 INHIBITORS FOR THE TREATMENT OF NEURODEGENERATIVE AND/OR COGNITIVE DISORDERS” (Regenacy Pharmaceuticals, LLC, priority 2016, published 2017).
“Also recorded” adds a separate entry of the source.

Legend:
HDAC3 = molecular target: T1, HDAC3 (Homo sapiens, UniProt O15379); test: HDAC enzyme assay, HDAC3; type: biochemical; settings: enzyme and compound incubated 24 hours at room temperature
T1 construct: purchased BPS Biosciences
T1 sequence (O15379 whole entry): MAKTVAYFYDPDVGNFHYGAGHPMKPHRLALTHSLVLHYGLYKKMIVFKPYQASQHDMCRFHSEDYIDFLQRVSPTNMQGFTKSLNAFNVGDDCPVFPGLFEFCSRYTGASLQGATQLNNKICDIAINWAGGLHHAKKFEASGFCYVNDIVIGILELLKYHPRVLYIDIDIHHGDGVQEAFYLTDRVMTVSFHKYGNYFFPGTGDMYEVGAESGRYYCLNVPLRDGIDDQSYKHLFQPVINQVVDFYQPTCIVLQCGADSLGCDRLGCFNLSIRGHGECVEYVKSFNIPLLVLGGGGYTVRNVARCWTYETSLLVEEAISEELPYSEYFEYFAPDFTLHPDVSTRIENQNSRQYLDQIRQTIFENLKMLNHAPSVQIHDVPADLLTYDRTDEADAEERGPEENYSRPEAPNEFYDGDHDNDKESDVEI
T1 sequence (Q9Y618 395-489 partner limits assumed): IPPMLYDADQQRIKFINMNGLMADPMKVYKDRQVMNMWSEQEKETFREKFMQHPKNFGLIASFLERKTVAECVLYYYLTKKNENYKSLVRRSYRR
Procedure: Compounds for testing were diluted in DMSO to 50 fold the final concentration and a ten point three fold dilution series was made. The compounds were diluted in assay buffer (50 mM HEPES, pH 7.4, 100 mM KCl, 0.001% Tween-20, 0.05% BSA, 20 μM TCEP) to 6 fold their final concentration. The HDAC enzymes (purchased from BPS Biosciences) were diluted to 1.5 fold their final concentration in assay buffer. The tripeptide substrate and trypsin at 0.05 μM final concentration were diluted in assay buffer at 6 fold their final concentration. The final enzyme concentrations used in these assays were 3.3 ng/ml (HDAC1), 0.2 ng/ml (HDAC2) and 0.08 ng/ml (HDAC3). The final substrate concentrations used were 16 μM (HDAC1), 10 μM (HDAC2) and 17 μM (HDAC3). Five μl of compound and 20 μl of enzyme were added to wells of a black, opaque 384 well plate in duplicate. Enzyme and compound were incubated together at room temperature for 24 hours. Five μl of substrate was added to each well, the plate was shaken for 60 seconds and placed into a Victor 2 microtiter plate reader. The development of fluorescence was monitored for 60 min and the linear rate of the reaction was calculated. The IC50 was determined using Graph Pad Prism by a four parameter curve fit.

[1] = system: APPSwDI/NOS2−/− transgenic mice; test: Radial arm water maze (RAWM) in APPSwDI/NOS2−/− model of Alzheimer's disease; type: in vivo; settings: 10 mg/kg orally daily for 4 weeks; for RAWM escape latency / RAWM number of errors: vs vehicle treated transgenic / wild type
Procedure: The ability of HDAC1/2 inhibitor Compound 1 to improve cognitive deficits of APPSwDI/NOS2−/− transgenic mice was tested in the radial arm water maze (RAWM).
The Study was performed on APPSwDI/NOS2−/− transgenic (mouse model of Alzheimer's disease) as well as non-transgenic mice, bred at Charles River (Finland). Animals for the main study are 10.5 months old at start. A total number of 45 transgenic (divided into 22 untreated and 23 treated) and 25 non-transgenic controls are used for the study
Transgenic mice are allocated to two different treatment groups, either treated with vehicle (20% HP-β-CD in water) or Compound 1 (dosage 10 mg/kg) administered orally via gavage daily for 4 weeks total. The application volume is 10 ml/kg/dose whereby each animal is weighed once a week and receives a volume according to its individual actual weight.
Spatial learning capacities of all animals were tested in the Radial Arm Water Maze (RAWM). Briefly a six arm maze was submerged in a pool of water, and a platform was placed at the end of one arm. The mouse received 15 trials per day for 2 days and on each trial was started in a different arm while the arm containing the platform remained the same for each mouse. The first 10 trials were considered training and alternated between a visible and a hidden platform. The final trials for day 1 and all trials on day 2 were tested with a hidden platform. The number of errors (incorrect arm entries) were counted over a 1 min period. The errors were averaged over six trials resulting in 5 blocks for the 2 day period. Latency to find the platform was also recorded, and averaged similarly as the errors.

[2] = APPSwDI/NOS2−/− mice, listed as compound 1, 10 mg/kg

Nc1ccc(-c2ccccc2)cc1NC(=O)c1cc2ccc(N3CCNCC3)cc2cn1 [Compound 1]
IC50 (HDAC3): 84 nM
tolerability ([1]; APPSwDI/NOS2−/− mice): very well tolerated in all animals
learning behavior during training ([1]; APPSwDI/NOS2−/− mice, vs vehicle treated transgenic): significantly better learning behavior
RAWM escape latency ([1]; APPSwDI/NOS2−/− mice, 10 mg/kg): improved escape latency time; also recorded: reversed the increased latency
RAWM number of errors ([1]; APPSwDI/NOS2−/− mice, 10 mg/kg): decrease in the number of errors; also recorded: reversed the increased latency and number of errors
RAWM escape latency [1, 2]: not statistically different from wild type mice
RAWM number of errors [1, 2]: not statistically different from wild type mice
body weight ([1]; treatment groups): no differences in body weight
